Data taken from patent US8884023B2, “Pyrano [3,2-D][1,3]thiazole as glycosidase inhibitors” (priority 2011, dated 2014).
pIC50: −log10 of the molar value.

molecular target: T1, His-Tagged hOGA (human O-GlcNAcase) (Homo sapiens, UniProt O60502); test: biochemical; settings: not given
T1 sequence (O60502 1-916): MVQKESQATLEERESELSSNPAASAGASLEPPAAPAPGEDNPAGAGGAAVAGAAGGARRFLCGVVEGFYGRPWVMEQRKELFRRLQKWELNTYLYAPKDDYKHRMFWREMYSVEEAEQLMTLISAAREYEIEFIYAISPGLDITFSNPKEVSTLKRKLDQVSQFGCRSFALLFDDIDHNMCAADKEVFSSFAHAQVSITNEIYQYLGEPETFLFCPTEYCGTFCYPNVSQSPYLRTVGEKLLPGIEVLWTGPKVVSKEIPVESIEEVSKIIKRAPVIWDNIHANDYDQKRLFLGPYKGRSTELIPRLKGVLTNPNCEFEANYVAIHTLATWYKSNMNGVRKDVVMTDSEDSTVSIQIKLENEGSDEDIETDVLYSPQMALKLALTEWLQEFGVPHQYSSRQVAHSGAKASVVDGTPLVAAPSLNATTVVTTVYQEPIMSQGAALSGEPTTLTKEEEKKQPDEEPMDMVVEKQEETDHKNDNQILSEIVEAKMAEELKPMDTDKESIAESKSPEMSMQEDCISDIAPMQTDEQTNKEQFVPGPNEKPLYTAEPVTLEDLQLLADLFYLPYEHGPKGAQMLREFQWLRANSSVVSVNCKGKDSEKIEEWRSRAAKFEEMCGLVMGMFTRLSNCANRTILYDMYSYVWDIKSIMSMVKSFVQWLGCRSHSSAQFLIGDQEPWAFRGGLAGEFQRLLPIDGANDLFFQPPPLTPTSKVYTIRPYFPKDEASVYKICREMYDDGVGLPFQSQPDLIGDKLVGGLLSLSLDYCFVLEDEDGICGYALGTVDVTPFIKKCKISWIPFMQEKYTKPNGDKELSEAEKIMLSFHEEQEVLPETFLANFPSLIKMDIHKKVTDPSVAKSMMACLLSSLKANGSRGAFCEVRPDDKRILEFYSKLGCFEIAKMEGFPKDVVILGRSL
Description: Human O-GlcNAcase Enzyme Inhibition Assay
The following reaction components were added to a final volume of 10 μL in McIlvaine's Buffer (pH 6.5):
20 nM His-Tagged hOGA and 10 μM Fluoroscein mono-beta-D-(2-deoxy-2-N-acetyl) glucopyranoside (FL-GlcNAc; Marker Gene Technologies Inc, Part #M1485). […] The amount of fluorescence measured was plotted against the concentration of inhibitor to produce a sigmoidal dose response curve, from which an IC50 was calculated.

SMILES | pIC50
CCNC1=N[C@@H]2[C@@H](O)[C@H](O)[C@@H](C(O)Cc3ccccc3)O[C@@H]2S1 (stereo partly shown) [compound 52] | 6.30 to 7.00
CCNC1=N[C@@H]2[C@@H](O)[C@H](O)[C@@H](Cn3cc(COc4ccccc4CNC)nn3)O[C@@H]2S1 [compound 83] | 6.00 to 6.30
CCNC1=N[C@@H]2[C@@H](O)[C@H](O)[C@@H](Cn3cc(COc4ccccc4C(C)O)nn3)O[C@@H]2S1 (stereo partly shown) [compound 85] | 6.30 to 7.00
CCNC1=N[C@@H]2[C@@H](O)[C@H](O)[C@@H](Cn3cc(Cn4c(C(F)(F)F)nc5ccccc54)nn3)O[C@@H]2S1 [compound 95] | > 7.00
CCNC1=N[C@@H]2[C@@H](O)[C@H](O)[C@@H](Cn3cc(Cn4nc(C)nc4C)nn3)O[C@@H]2S1 [compound 96] | > 7.00
CCNC1=N[C@@H]2[C@@H](O)[C@H](O)[C@@H](Cn3cc(Cn4ccnc4-c4cccs4)nn3)O[C@@H]2S1 [compound 97] | > 7.00
CCNC1=N[C@@H]2[C@@H](O)[C@H](O)[C@@H](Cn3cc(-c4cn(S(=O)(=O)c5ccccc5)c5ccccc45)nn3)O[C@@H]2S1 [compound 98] | > 7.00
CCNC1=N[C@@H]2[C@@H](O)[C@H](O)[C@@H](Cn3cc(C4(c5ccccc5)CCCC4)nn3)O[C@@H]2S1 [compound 100] | 6.30 to 7.00
CCNC1=N[C@@H]2[C@@H](O)[C@H](O)[C@@H](Cn3nnnc3C(=O)c3ccccc3)O[C@@H]2S1 [compound 105] | < 6.00
CCNC1=N[C@@H]2[C@@H](OC)[C@H](OC)[C@@H](COC)O[C@@H]2S1 [compound no. 13, (3aR,5R,6S,7R,7aR)—N-ethyl-6,7-dimethoxy-5-(methoxymethyl)-5,6,7,7a-tetrahydro-3aH-pyrano[3,2-d][1,3]thiazol-2-amine] | < 6.00
CCNC1=N[C@@H]2[C@@H](OC)[C@H](O)[C@@H](CO)O[C@@H]2S1 [compound no. 15, (3aR,5R,6S,7R,7aR)-2-(ethylamino)-5-(hydroxymethyl)-7-methoxy-5,6,7,7a-tetrahydro-3aH-pyrano[3,2-d][1,3]thiazol-6-ol] | < 6.00
CCN(C(=O)OC(C)(C)C)C1=N[C@@H]2[C@@H](O)[C@H](O)[C@@H](COCc3ccccc3)O[C@@H]2S1 [compound no. 16, Tert-butyl {(3aR,5R,6S,7R,7aR)-5-[(benzyloxy)methyl]-6,7-dihydroxy-5,6,7,7a-tetrahydro-3aH-pyrano[3,2-d][1,3]thiazol-2-yl}ethylcarbamate] | < 6.00
CCNC1=N[C@@H]2[C@@H](O)[C@H](O)[C@@H](C(=O)NCCc3ccc(-c4ccccc4)cc3)O[C@@H]2S1 [compound no. 23, (3aR,5S,6S,7R,7aR)—N-(2-biphenyl-4-ylethyl)-2-(ethylamino)-6,7-dihydroxy-5,6,7,7a-tetrahydro-3aH-pyrano[3,2-d][1,3]thiazole-5-carboxamide] | < 6.00
CCNC1=N[C@@H]2[C@@H](O)[C@H](O)[C@@H](C(=O)N(C)C)O[C@@H]2S1 [compound no. 28, (3aR,5S,6S,7R,7aR)-2-(ethylamino)-6,7-dihydroxy-N,N-dimethyl-5,6,7,7a-tetrahydro-3aH-pyrano[3,2-d][1,3]thiazole-5-carboxamide] | < 6.00
CCNC1=N[C@@H]2[C@@H](O)[C@H](O)[C@@H](C(=O)Nc3ccccc3)O[C@@H]2S1 [compound no. 31, (3aR,5S,6S,7R,7aR)-2-(ethylamino)-6,7-dihydroxy-N-phenyl-5,6,7,7a-tetrahydro-3aH-pyrano[3,2-d][1,3]thiazole-5-carboxamide] | < 6.00
CCNC1=N[C@@H]2[C@@H](O)[C@H](O)[C@@H](C(=O)NCCc3ccc(Oc4ccccc4)cc3)O[C@@H]2S1 [compound no. 33, (3aR,5S,6S,7R,7aR)-2-(ethylamino)-6,7-dihydroxy-N-[2-(4-phenoxyphenyl)ethyl]-5,6,7,7a-tetrahydro-3aH-pyrano[3,2-d][1,3]thiazole-5-carboxamide] | < 6.00
CCNC1=N[C@@H]2[C@@H](O)[C@H](O)[C@@H](C=O)O[C@@H]2S1 [compound no. 47, (3aR,5S,6S,7R,7aR)-2-(ethylamino)-6,7-dihydroxy-5,6,7,7a-tetrahydro-3aH-pyrano[3,2-d][1,3]thiazole-5-carbaldehyde] | > 7.00
CCN(C(=O)OC)C1=N[C@@H]2[C@@H](O)[C@H](O)[C@@H](CO)O[C@@H]2S1 [compound no. 49, Methyl-[(3aR,5R,6S,7R,7aR)-6,7-dihydroxy-5-(hydroxymethyl)-5,6,7,7a-tetrahydro-3aH-pyrano[3,2-d][1,3]thiazol-2-yl]ethylcarbamate] | > 7.00
CCNC1=N[C@@H]2[C@@H](O)[C@H](O)[C@@H]([C@H](O)CCCc3ccccc3)O[C@@H]2S1 [compound no. 55, (3aR,5R,6S,7R,7aR)-2-(ethylamino)-5-((R)1-hydroxy-4-phenylbutyl)-5,6,7,7a-tetrahydro-3aH-pyrano[3,2-d][1,3]thiazole-6,7-diol] | < 6.00
CCNC1=N[C@@H]2[C@@H](O)[C@H](O)[C@@H]([C@@H](O)CCCc3ccccc3)O[C@@H]2S1 [compound no. 56, (3aR,5R,6S,7R,7aR)-2-(ethylamino)-5-((S)1-hydroxy-4-phenylbutyl)-5,6,7,7a-tetrahydro-3aH-pyrano[3,2-d][1,3]thiazole-6,7-diol] | 6.30 to 7.00

same assay, conditions: read-out: OGA enzyme inhibition (IC50)

SMILES | pIC50
CCNC1=N[C@@H]2[C@@H](O)[C@H](O)[C@@H](Cn3cc(COC)nn3)O[C@@H]2S1 [compound 11, (3aR,5R,6S,7R,7aR)-2-(ethylamino)-5-{[4-(methoxymethyl)-1H-1,2,3-triazol-1-yl]methyl}-5,6,7,7a-tetrahydro-3aH-pyrano[3,2-d][1,3]thiazole-6,7-diol] | 6.30 to 7.00
CCNC1=N[C@@H]2[C@@H](O)[C@H](O)[C@@H](Cn3cc(C4(c5ccccc5)CC4)nn3)O[C@@H]2S1 [compound 99] | > 7.00
CCNC1=N[C@@H]2[C@@H](O)[C@H](O)[C@@H](Cn3cc(COc4cccc(N)c4)nn3)O[C@@H]2S1 [compound 101] | 6.30 to 7.00
CCNC1=N[C@@H]2[C@@H](O)[C@H](O)[C@@H](Cn3cc(COc4ccccc4CN)nn3)O[C@@H]2S1 [compound 102] | 6.30 to 7.00
CCNC1=N[C@@H]2[C@@H](O)[C@H](O)[C@@H](COCc3ccccc3)O[C@@H]2S1 [compound no. 8, (3aR,5R,6S,7R,7aR)-5-[(benzyloxy)methyl]-2-(ethylamino)-5,6,7,7a-tetrahydro-3aH-pyrano[3,2-d][1,3]thiazole-6,7-diol] | < 6.00
CCNC1=N[C@@H]2[C@@H](O)[C@H](O)[C@@H](C(=O)O)O[C@@H]2S1 [compound no. 9, (3aR,5S,6S,7R,7aR)-2-(ethylamino)-6,7-dihydroxy-5,6,7,7a-tetrahydro-3aH-pyrano[3,2-d]thiazole-5-carboxylic acid] | < 6.00
CCN(C)C1=N[C@@H]2[C@@H](O)[C@H](O)[C@@H](C(=O)O)O[C@@H]2S1 [compound no. 36, (3aR,5S,6S,7R,7aR)-2-[ethyl(methyl)amino]-6,7-dihydroxy-5,6,7,7a-tetrahydro-3aH-pyrano[3,2-d][1,3]thiazole-5-carboxylic acid] | < 6.00
CCNC1=N[C@@H]2[C@@H](O)[C@H](O)[C@@H](C(=O)OC)O[C@@H]2S1 [compound no. 42, Methyl-(3aR,5S,6S,7R,7aR)-2-(ethylamino)-6,7-dihydroxy-5,6,7,7a-tetrahydro-3aH-pyrano[3,2-d][1,3]thiazole-5-carboxylate] | < 6.00
CCNC1=N[C@@H]2[C@@H](O)[C@H](O)[C@@H](C(=O)N(C)OC)O[C@@H]2S1 [compound no. 45, (3aR,5S,6S,7R,7aR)-2-(ethylamino)-6,7-dihydroxy-N-methoxy-N-methyl-5,6,7,7a-tetrahydro-3aH-pyrano[3,2-d][1,3]thiazole-5-carboxamide] | < 6.00
CCNC1=N[C@@H]2[C@@H](O)[C@H](O)[C@@H](CNCc3ccccc3)O[C@@H]2S1 [compound no. 48, (3aR,5R,6S,7R,7aR)-5-[(benzylamino)methyl]-2-(ethylamino)-5,6,7,7a-tetrahydro-3aH-pyrano[3,2-d][1,3]thiazole-6,7-diol] | 6.00 to 6.30
CCNC1=N[C@@H]2[C@@H](O)[C@H](O)[C@@H]([C@H](O)CCc3ccccc3)O[C@@H]2S1 [compound no. 54, (3aR,5R,6S,7R,7aR)-2-Ethylamino-5-((R)-1-hydroxy-3-phenyl-propyl)-5,6,7,7a-tetrahydro-3aH-pyrano[3,2-d]thiazole-6,7-diol] | < 6.00
